{
  "source": "paper PMC4474874",
  "about": "“Effect of JAK Inhibitors on Release of CXCL9, CXCL10 and CXCL11 from Human Airway Epithelial Cells” (PLoS ONE, 2015)",
  "key": {"BEAS-2B cells [1]": {"tested_on": "BEAS-2B cells", "test": "Release of CXCL9, CXCL10 and CXCL11 from BEAS-2B cells (ELISA), inhibitors added 1h before stimulus", "assay_type": "cell-based, human", "settings": "BEAS-2B", "description": "(§1) BEAS-2B cells (catalogue number CRL-9609) were purchased directly from American Type Culture Collection (Rockville, MD). Keratinocyte serum-free medium (K-SFM), bovine pituitary extract (BPE), and recombinant human epidermal growth factor (EGF) were purchased from Invitrogen (Paisley, UK). BEAS-2B cells were cultured in K-SFM containing 50 μg/ml BPE and 5 ng/ml EGF at 37°C in a humidified atmosphere comprising 5% (v/v) CO2 in air. Cells were cultured as monolayers in growth factor-free media for 24 h prior to stimulation. Human primary airway epithelial cells were cultured as monolayers from bronchial brushings from both male and female subjects (Table 1) and cultured in LHC-9 media (Invitrogen, Paisley, UK) in collagen (1% w/v) coated flasks. Samples were obtained from non-smokers, smokers and patients with COPD. […] The subjects were matched for age and smokers and COPD patients for smoking history (Table 1). All subjects gave informed written consent and the study was approved by the NRES London-Chelsea Research Ethics committee, study number 09/H0801/85.\n(§2) Cell-free supernatants were removed 20h post-stimulation and assayed for CXCL9, CXCL10 and CXCL11 using Duoset ELISA kits (R & D Systems Europe, Abingdon, UK) according to the manufacturer’s instructions. The detection limits of these assays are 62pg/ml, 31pg/ml, and 7.8 pg/ml respectively.\n(§3) Data are presented as mean ± SEM of ‘n’ independent determinations. Concentration-response curves were analysed by least-squares, non-linear iterative regression with the ‘Graphpad Prism’ curve fitting program (GraphPad software, San Diego, USA) and IC50 values were subsequently interpolated from curves of best-fit. Statistical differences were determined using the Kruskal–Wallis test followed by Dunn's multiple comparison test or a Wilcoxon signed rank test as appropriate. Values of P<0.05 were considered significant.\nMedia was harvested and the concentrations of CXCL9 (panels a and d), CXCL10 (panels b and e) and CXCL11 (panels c and f) were measured by ELISA. Data are presented as mean±SEM, n = 7–8."}, "BEAS-2B cells [2]": {"tested_on": "BEAS-2B cells", "test": "IL-6 release from IFNγ + TNFα-stimulated BEAS-2B cells", "assay_type": "cell-based, human", "description": "(§4) In order to determine whether any of the inhibitory effects of the JAK inhibitors could be attributed to cell death, MTT assays were performed at the end of every experiment. […] In order to address this issue, the levels of IL-6 released from cells stimulated with IFNγ + TNFα were measured."}, "BEAS-2B cells [3]": {"tested_on": "BEAS-2B cells", "test": "mRNA expression of CXCL9, CXCL10 and CXCL11 in BEAS-2B cells (Taqman RT-PCR)", "assay_type": "cell-based, human", "settings": "BEAS-2B, 10^-6M, IFNγ or IFNγ + TNFα", "description": "Total RNA was extracted from cells and reverse transcribed, as described previously. Gene expression was determined by Taqman real-time PCR on a 7500 Real Time PCR system (Applied Biosystems, Life Technologies Ltd, Paisley, UK) using PCR Master Mix Reagent and ‘assays on demand’ (Applied Biosystems). HPRT1 gene expression was used as the housekeeping gene and data presented as δδCT relative to baseline.\nGene expression of CXCL9 (panels a and b), CXCL10 (panels c and d) and CXCL11 (panels e and f) were quantified by Taqman RT-PCR. Data are presented as fold change form stimulus ± SEM; n = 3 where 1 indicates the level of mRNA induced by IFNγ or IFNγ + TNFα in the absence of inhibitors."}, "[4]": {"tested_on": "human primary airway epithelial cells", "test": "IL-6 release from IFNγ + TNFα-stimulated human primary airway epithelial cells", "assay_type": "cell-based", "settings": "IFNγ + TNFα", "description": "as §4"}, "[5]": {"tested_on": "human primary airway epithelial cells", "test": "Release of CXCL9, CXCL10 and CXCL11 from human primary airway epithelial cells (ELISA)", "assay_type": "cell-based", "settings": "human primary airway epithelial cells, IFNγ or IFNγ+TNFα", "description": "as §1, §2, §3\nMedia was harvested and the concentrations of CXCL9 (panels a and d), CXCL10 (panels b and e) and CXCL11 (panels c and f) were measured by ELISA. Data are presented as mean ± SEM, n = 10–13."}},
  "data": [
    {"molecule": "C[C@@H]1C[C@H]2[C@@H]3CCC4=CC(=O)C=C[C@]4(C)[C@@]3(F)[C@@H](O)C[C@]2(C)[C@@]1(O)C(=O)CO", "note": "[dexamethasone]", "values": [
      {"measurement": "effect on CXCL9 and CXCL11 release", "setting": "BEAS-2B cells [1]; IFNγ or IFNγ+TNFα", "value": "very limited effect"},
      {"measurement": "maximal inhibitory effect on release of CXCL10", "setting": "BEAS-2B cells [1]; IFNγ-stimulated", "value": "~ 50%"},
      {"measurement": "inhibitory effect on release of CXCL10", "setting": "BEAS-2B cells [1]; stimulation with IFNγ and TNFα together", "value": "none"},
      {"measurement": "suppression of IL-6 release", "setting": "BEAS-2B cells [2]", "value": "50–70%"},
      {"measurement": "IC50", "setting": "BEAS-2B cells [2]; Homo sapiens", "value": "0.016 ± 0.008", "unit": "µM"},
      {"measurement": "effect on gene transcription of CXCL9, CXCL10 and CXCL11", "setting": "BEAS-2B cells [3]", "value": "no effect on gene transcription"},
      {"measurement": "IC50", "setting": "[4]; Homo sapiens, Epithelial cell", "value": "0.011 ± 0.007", "unit": "µM"},
      {"measurement": "suppression of IL-6 release", "setting": "[4]", "value": "50–70%"},
      {"measurement": "effect on CXCR3 chemokine release", "setting": "[5]", "value": "did not suppress"}
    ]}
  ]
}
